Patent US4273765A, “Amino sugar derivatives containing trehalose” (Hoffmann-La Roche Inc., priority 1978, dated 1981)

How the values were obtained:
[1] = target: T1, porcine pancreatic α-amylase (Sus scrofa, UniProt P00690); test: Porcine pancreatic α-amylase inhibitory activity (Bernfeld assay); assay type: biochemical; conditions: IU = amount giving 50% inhibition of 2 units porcine pancreatic α-amylase, pH 6.9, 37° C.
T1 sequence (P00690 16-511): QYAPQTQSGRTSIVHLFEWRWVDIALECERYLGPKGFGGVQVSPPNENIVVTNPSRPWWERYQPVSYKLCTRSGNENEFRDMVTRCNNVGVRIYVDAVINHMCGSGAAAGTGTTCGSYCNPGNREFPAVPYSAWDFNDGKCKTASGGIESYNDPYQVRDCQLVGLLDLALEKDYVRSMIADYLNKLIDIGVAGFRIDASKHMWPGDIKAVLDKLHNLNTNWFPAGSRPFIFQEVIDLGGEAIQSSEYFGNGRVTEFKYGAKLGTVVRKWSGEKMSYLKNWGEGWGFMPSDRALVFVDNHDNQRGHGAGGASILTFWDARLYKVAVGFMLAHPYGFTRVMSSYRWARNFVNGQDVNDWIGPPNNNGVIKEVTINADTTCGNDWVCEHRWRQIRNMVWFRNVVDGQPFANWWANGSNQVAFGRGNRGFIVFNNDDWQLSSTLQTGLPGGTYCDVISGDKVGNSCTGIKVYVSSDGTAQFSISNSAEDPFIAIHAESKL
Description: 2 units* of porcine pancreatic α-amylase in 0.1 ml of 6.4 mM ammonium sulfate solution are added to 0.6 ml of 20 mM phosphate buffer (pH 6.9) containing 10 mM sodium chloride and different amounts of Trestatin. The mixture, after equilibration at 37° C. for 5 min. followed by the addition of 0.5 ml of 4% soluble starch solution, is incubated for 5 min. at 37° C. The reaction is terminated by the addition of 2 ml of dinitrosalicylic acid reagent prepared according to the method of P. Bernfeld. The mixture is heated on a boiling water bath for 5 min. and then diluted with 10 ml of water. Absorbance (A1) of the resulting colored solution is measured at 540 nm, and the inhibition of α-amylase activity can be calculated from the following equation: [formula] A0; absorbance without enzyme A2; absorbance without Trestatin
*1 unit of the α-amylase is the amount of enzyme which catalyzes under the above conditions without Trestatin the formation of reducing sugars equivalent to 1 μmol of maltose.
Each of said inhibitory activities was determined by the method mentioned above.

[2] = tested on: Klebsiella pneumoniae PCI602; test: Antimicrobial spectrum, agar-dilution method; assay type: cell-based
[3] = tested on: hyperglycemia following an oral load of sucrose; test: Hyperglycemia following an oral load of sucrose; assay type: in vivo; conditions: dose/kg 30.0 mg; 20 min. after 3.2 g sucrose/kg
Description: (§4) [Plasma Glucose and insulin 20 min. after carbohydrate ± Trestatin (1.
g wheat starch/kg or 3.2 g sucrose/kg)]

[4] = tested on: Staphylococcus aureus MS9261; test: Antimicrobial spectrum, agar-dilution method; assay type: cell-based
[5] = tested on: hyperglycemia (hyperinsulinemia) following an oral load of native starch; test: Hyperglycemia (hyperinsulinemia) following an oral load of native starch; assay type: in vivo; conditions: 20 min. after wheat starch
Description: as §4
g wheat starch/kg or 3.2 g sucrose/kg)]

E. coli NIHJ = test: Antimicrobial spectrum, agar-dilution method; assay type: cell-based
Citrobacter = test: Antimicrobial spectrum, agar-dilution method; assay type: cell-based
[6] = tested on: hyperglycemia induced by cooked rice starch; test: Inhibition of hyperglycemia induced by cooked rice starch, rats; assay type: in vivo; conditions: p.o., dose causing after 20 minutes a 20 percent decrease of hyperglycemia, 2 g/kg cooked rice starch
Description: (§1) **ED20 is defined as the dose causing after 20 minutes a 20 percent
(§2) decrease of hyperglycemia induced by oral administration of 2 g/kg body
(§3) weight cooked rice starch.

E. coli NIHJ SMf = test: Antimicrobial spectrum, agar-dilution method; assay type: cell-based
[7] = tested on: hyperglycemia induced by cooked rice starch; test: Inhibition of hyperglycemia induced by cooked rice starch, mice; assay type: in vivo; conditions: p.o., dose causing after 20 minutes a 20 percent decrease of hyperglycemia, 2 g/kg cooked rice starch
Description: as §1, §2, §3

Salmonella paratyphi B = conditions: agar-dilution
Shigella flexneri = test: Antimicrobial spectrum, agar-dilution method; assay type: cell-based
E. coli NIHJ STf = test: Antimicrobial spectrum, agar-dilution method; assay type: cell-based
E. coli K-12 ML1630 = test: Antimicrobial spectrum, agar-dilution method; assay type: cell-based; conditions: E. coli K-12 ML1630, agar-dilution
Candida albicans Yu1200 = test: Antimicrobial spectrum, agar-dilution method; assay type: cell-based
[8] = tested on: Serratia marcescens IFO12648; test: Antimicrobial spectrum, agar-dilution method; assay type: cell-based
[9] = tested on: Staphylococcus aureus Smith; test: Antimicrobial spectrum, agar-dilution method; assay type: cell-based
Proteus rettgeri = test: Antimicrobial spectrum, agar-dilution method; assay type: cell-based
Sarcina lutea ATCC 9341 = test: Antimicrobial spectrum, agar-dilution method; assay type: cell-based; conditions: Sarcina lutea ATCC 9341, agar-dilution
E. coli CF41 = test: Antimicrobial spectrum, agar-dilution method; assay type: cell-based
[10] = tested on: Staphylococcus aureus FDA209P; test: Antimicrobial spectrum, agar-dilution method; assay type: cell-based
[11] = tested on: Proteus vulgaris OX19 ATCC6898; test: Antimicrobial spectrum, agar-dilution method; assay type: cell-based
E. coli CF17 = test: Antimicrobial spectrum, agar-dilution method; assay type: cell-based
rats = test: Acute toxicity, oral, rats; conditions: 500 mg/kg administered to rats orally (65-700 times the effective dosage)
[12] = tested on: Salmonella typhimurium IFO12529; test: Antimicrobial spectrum, agar-dilution method; assay type: cell-based
[13] = tested on: Bordetella bronchiseptica Aichi 202; test: Antimicrobial spectrum, agar-dilution method; assay type: cell-based; conditions: Bordetella bronchiseptica Aichi 202, agar-dilution
[14] = tested on: Pseudomonas aeruginosa IFO12689; test: Antimicrobial spectrum, agar-dilution method; assay type: cell-based
Titration (in water) = assay type: physicochemical
[15] = tested on: Mycobacterium smegmatis ATCC607; test: Antimicrobial spectrum, agar-dilution method; assay type: cell-based
Solubility in solvents = assay type: physicochemical
Source text: (h) Solubility in solvents:

[16] = tested on: Bacillus subtilis PCI 219; test: Antimicrobial spectrum, agar-dilution method; assay type: cell-based; conditions: Bacillus subtilis PCI 219, agar-dilution
[17] = tested on: Staphylococcus aureus MS3937; test: Antimicrobial spectrum, agar-dilution method; assay type: cell-based
[18] = tested on: Pseudomonas aeruginosa A3; test: Antimicrobial spectrum, agar-dilution method; assay type: cell-based
[19] = tested on: Pseudomonas aeruginosa P2; test: Antimicrobial spectrum, agar-dilution method; assay type: cell-based

Compound: Trestatin B monohydrochloride [Trestatin B . HCl]
- Inhibitory activities [1]: 1.3 × 10^6 IU/g

Compound: C[C@H]1O[C@H](O[C@@H]2[C@H](O)[C@H](O)[C@@H](O[C@@H]3[C@H](O)[C@@H](O)[C@@H](O[C@@H]4[C@H](O)[C@H](O)[C@@H](O[C@H]5O[C@@H](CO)[C@H](O)[C@H](O)[C@H]5O)O[C@@H]4CO)O[C@@H]3CO)O[C@H]2CO)[C@H](O)[C@@H](O)[C@@H]1N[C@H]1C=C(CO)[C@@H](O[C@H]2O[C@H](CO)[C@H](O[C@H]3O[C@H](C)[C@@H](N[C@H]4C=C(CO)[C@@H](O)[C@H](O)[C@H]4O)[C@H](O)[C@H]3O)[C@H](O)[C@H]2O)[C@H](O)[C@H]1O (stereo in doubt) [Trestatin A]
- Antimicrobial spectrum [2]: > 100 µg/mL
- Plasma glucose, sucrose - load [3]: 84% of carbohydrate primed controls
- Antimicrobial spectrum [4]: > 100 µg/mL
- Plasma glucose, starch - load ([5]; dose/kg 0.3 mg): 68% of carbohydrate primed controls
- Plasma insulin, starch - load ([5]; dose/kg 0.3 mg): 66% of carbohydrate primed controls
- Plasma glucose, starch - load ([5]; dose/kg 1.0 mg): 56% of carbohydrate primed controls
- Plasma insulin, starch - load ([5]; dose/kg 1.0 mg): 42% of carbohydrate primed controls
- Plasma glucose, starch - load ([5]; dose/kg 3.0 mg): 55% of carbohydrate primed controls
- Plasma insulin, starch - load ([5]; dose/kg 3.0 mg): 42% of carbohydrate primed controls
- Antimicrobial spectrum (E. coli NIHJ): > 100 µg/mL
- Antimicrobial spectrum (Citrobacter): > 100 µg/mL
- ED20, inhibition of hyperglycemia induced by cooked rice starch [6]: 1.0 mg/kg
- Antimicrobial spectrum (E. coli NIHJ SMf): > 100 µg/mL
- ED20, inhibition of hyperglycemia induced by cooked rice starch [7]: 1.1 mg/kg
- Antimicrobial spectrum (Salmonella paratyphi B): > 100 µg/mL
- Antimicrobial spectrum (Shigella flexneri): > 100 µg/mL
- Antimicrobial spectrum (E. coli NIHJ STf): > 100 µg/mL
- Antimicrobial spectrum (E. coli K-12 ML1630): > 100 µg/mL
- Antimicrobial spectrum (Candida albicans Yu1200): > 100 µg/mL
- Antimicrobial spectrum [8]: > 100 µg/mL
- Antimicrobial spectrum [9]: > 100 µg/mL
- Antimicrobial spectrum (Proteus rettgeri): > 100 µg/mL
- Inhibitory activities [1]: 7.1 × 10^7 IU/g
- Antimicrobial spectrum (Sarcina lutea ATCC 9341): > 100 µg/mL
- Antimicrobial spectrum (E. coli CF41): > 100 µg/mL
- Antimicrobial spectrum [10]: > 100 µg/mL
- Antimicrobial spectrum [11]: > 100 µg/mL
- Antimicrobial spectrum (E. coli CF17): > 100 µg/mL
- Acute toxicity (rats): not observed
- Antimicrobial spectrum [12]: > 100 µg/mL
- Antimicrobial spectrum [13]: > 100 µg/mL
- Antimicrobial spectrum [14]: > 100 µg/mL
- pKa' (Titration (in water)): 5.0
- Antimicrobial spectrum [15]: > 100 µg/mL
- Solubility in acetone (Solubility in solvents): slightly soluble
- Solubility in chloroform (Solubility in solvents): insoluble
- Solubility in dimethylsulfoxide (Solubility in solvents): soluble
- Solubility in ethanol (Solubility in solvents): slightly soluble
- Solubility in ethyl acetate (Solubility in solvents): insoluble
- Solubility in water (Solubility in solvents): easily soluble
- Antimicrobial spectrum [16]: > 100 µg/mL
- Antimicrobial spectrum [17]: > 100 µg/mL
- Antimicrobial spectrum [18]: > 100 µg/mL
- Antimicrobial spectrum [19]: > 100 µg/mL

Compound: Trestatin A dihydrochloride [Trestatin A . HCl]
- Inhibitory activities [1]: 6.3 × 10^7 IU/g

Compound: C[C@H]1O[C@H](O[C@@H]2[C@H](O)[C@@H](O)[C@@H](O[C@@H]3[C@H](O)[C@@H](O)[C@@H](O[C@@H]4[C@H](O)[C@H](O)[C@@H](O[C@H]5O[C@H](CO)[C@H](O)[C@H](O)[C@H]5O)O[C@@H]4CO)O[C@@H]3CO)O[C@H]2CO)[C@@H](O)[C@@H](O)[C@@H]1N[C@@H]1C=C(CO)[C@@H](O)[C@@H](O)[C@@H]1O (stereo in doubt) [Trestatin B]
- Antimicrobial spectrum [2]: > 100 µg/mL
- Antimicrobial spectrum [4]: > 100 µg/mL
- Antimicrobial spectrum (E. coli NIHJ): > 100 µg/mL
- Antimicrobial spectrum (Citrobacter): > 100 µg/mL
- ED20, inhibition of hyperglycemia induced by cooked rice starch [6]: 7.7 mg/kg
- Antimicrobial spectrum (E. coli NIHJ SMf): > 100 µg/mL
- ED20, inhibition of hyperglycemia induced by cooked rice starch [7]: 3.2 mg/kg
- Antimicrobial spectrum (Salmonella paratyphi B): > 100 µg/mL
- Antimicrobial spectrum (Shigella flexneri): > 100 µg/mL
- Antimicrobial spectrum (E. coli NIHJ STf): > 100 µg/mL
- Antimicrobial spectrum (E. coli K-12 ML1630): > 100 µg/mL
- Antimicrobial spectrum (Candida albicans Yu1200): > 100 µg/mL
- Antimicrobial spectrum [8]: > 100 µg/mL
- Antimicrobial spectrum [9]: > 100 µg/mL
- Antimicrobial spectrum (Proteus rettgeri): > 100 µg/mL
- Inhibitory activities [1]: 1.5 × 10^6 IU/g
- Antimicrobial spectrum (Sarcina lutea ATCC 9341): > 100 µg/mL
- Antimicrobial spectrum (E. coli CF41): > 100 µg/mL
- Antimicrobial spectrum [10]: > 100 µg/mL
- Antimicrobial spectrum [11]: > 100 µg/mL
- Antimicrobial spectrum (E. coli CF17): > 100 µg/mL
- Acute toxicity (rats): not observed
- Antimicrobial spectrum [12]: > 100 µg/mL
- Antimicrobial spectrum [13]: > 100 µg/mL
- Antimicrobial spectrum [14]: > 100 µg/mL
- pKa' (Titration (in water)): 5.0
- Antimicrobial spectrum [15]: > 100 µg/mL
- Solubility in acetone (Solubility in solvents): slightly soluble
- Solubility in chloroform (Solubility in solvents): insoluble
- Solubility in dimethylsulfoxide (Solubility in solvents): soluble
- Solubility in ethanol (Solubility in solvents): slightly soluble
- Solubility in ethyl acetate (Solubility in solvents): insoluble
- Solubility in water (Solubility in solvents): easily soluble
- Antimicrobial spectrum [16]: > 100 µg/mL
- Antimicrobial spectrum [17]: > 100 µg/mL
- Antimicrobial spectrum [18]: > 100 µg/mL
- Antimicrobial spectrum [19]: > 100 µg/mL

Compound: Trestatin C trihydrochloride [Trestatin C . HCl]
- Inhibitory activities [1]: 4.5 × 10^7 IU/g
